The subject of test [1] is genes related to muscle metabolism (MYF6, MyoD, and Desmin) and fat metabolism (PPARr, CEBPa, and FABP4) of the loin tissue. As to the kind of experiment: Real-time PCR of gene expression related to loin tissue development under cold stress conditions. In kind it is in vivo, Korean native cattle. The text has this: After grouping the animals by statistical analysis of initial body weights, the animals were bred in 1.0×1.5 m^2 individual pens during the experiment period. The feed was offered based on an amount of dry matter of daily total mixed ration (TMR) per head. After 7 days of an adaptation period for N-acetyl-L-tryptophan (NALT), a mixture of 0.1% N-acetyl-L-tryptophan (NALT) and the total mixed ration was fed to individual animals every morning at 8 a.m. for 6 weeks, and water was available ad libitum. Total amounts of L-tryptophan ingested by the control and NALT-treated group by feeding NALT were 7.37 g/day/head and 16.26 g/day/head, respectively. The experiment was performed such that the NALT-treated group ingested 8.89 g/day/head more L-tryptophan than that of the control. Meanwhile, results of growth performance analysis (body weight and average feed intake) and genetic analysis of loin tissue were obtained by statistically comparing and analyzing significant differences between the control and the NALT-treated group, and results of hematological analysis were obtained via statistical comparison and analysis depending on NALT treatment, experiment period (days), and interaction (treatment×days). These numerical values were expressed as average values, and a significance test was performed at the 5% level using Student's t-test by using the JMP 5.0 software package (SAS Institute Inc., Cary, NC, USA). Samples of loin tissue of the sentinel animals were obtained at the final day of the experiment (day 48) using a biopsy gun for large animals (TNT Research Co., Ltd., Gyeonggi-do, Republic of Korea), added to a 2 mL tube, and incubated in liquid nitrogen gas. After extracting RNA from each tissue sample, real-time PCR was conducted to analyze expression levels of genes related to muscle metabolism (MYF6, MyoD, and Desmin) and fat metabolism (PPARr, CEBPa, and FABP4) of the loin tissue of each animal.
For orientation: Real-time PCR tracks product formation cycle by cycle.

For test [2], the system named is Korean native steers. As to the kind of experiment: Body weight and average daily gain according to NALT feeding under heat stress conditions. It is filed as in vivo, Korean native cattle. On the procedure:
In the present disclosure, 8 Korean native steers (15.9±0.16 months old on average) were selected and used. The experimental procedure and method were approved by the Institutional Animal Care and Use Committee at Konkuk University, Seoul, Republic of Korea (Approval No. KU17136). […] Analysis of chemical composition (moisture, crude protein, crude fat, crude ash, etc.) and amino acids (19 types) of the basal diet stored at −20° C. was performed, and the results are shown in Table 3. After grouping the animals by statistical analysis of initial body weights, the animals were bred in 1.0×1.5 m^2 individual pens during the experiment period. The feed was offered based on an amount of dry matter of daily total mixed ration (TMR) per head. After 7 days of an adaptation period for N-acetyl-L-tryptophan (NALT), a mixture of 0.1% N-acetyl-L-tryptophan (NALT) and the total mixed ration was fed to individual animals every morning at 8 a.m. for 6 weeks, and water was available ad libitum. Total amounts of L-tryptophan ingested by the control and the experimental group (NALT-treated group) by feeding NALT were 6.0 g/day/head and 18.2 g/day/head, respectively. The experiment was performed such that the NALT-treated group ingested 12.2 g/day/head more L-tryptophan than the control. Meanwhile, results of growth performance analysis (body weight and average feed intake) and genetic analysis of loin tissue were obtained by statistically comparing and analyzing significant differences between the control and the NALT-treated group, and results of hematological analysis were obtained via statistical comparison and analysis depending on NALT treatment, experiment period (days), and interaction (treatment×days). These numerical values were expressed as average values, and a significance test was performed at the 5% level using Student's t-test by using a JMP 5.0 software package (SAS Institute Inc., Cary, NC, USA). Temperature (° C.) and relative humidity (%) were recorded every day during a one-week adaptation period and a 6-week experiment period using a portable temperature and humidity meter. Average temperature and average relative humidity of each week were calculated using the temperature and relative humidity recorded during the total experiment period. In addition, a temperature-humidity index (THI) was calculated using temperature and humidity as shown in the following equation, and heat stress state may be diagnosed using the THI as an index feature of a heat load. THI=(1.8×T+32)−[0.55−0.0055×RH)×(1.8×T−26.8) Initial weight (week 0), intermediate weight (week 5), and end weight (week 10) of sentinel animals were measured, i.e., three times in total, before offering morning feed. The average daily gain (ADG) of the sentinel animals was calculated by dividing the differences in weight, between the initial weight and the intermediate weight and between the intermediate weight and the end weight, by the total number of days of the experiment.

[3] abbreviates: 0.1% NALT, day 48, control = 1.000.

Entries after “also recorded” stand apart in the source; their conditions may differ.

Consider `CC(=O)N[C@@H](Cc1c[nH]c2ccccc12)C(=O)O` [NALT, N-acetyl-L-tryptophan], for which, in test [1], the “Expression of genes (MYF6, MyoD, and Desmin) related to muscle metabolism of loin tissue compared with the control” value is listed as “did not show a statistically significant difference; also recorded: No statistically significant difference”; the “Expression of genes (PPARr, CEBPa, and FABP4) related to fat metabolism of loin tissue compared with the control” value is reported as “lower”. In test [1] (setting [3]), the “CEBPa expression level in loin tissue” value is given as 0.293, the “Desmin expression level in loin tissue” value amounted to 0.871, the “FABP4 expression level in loin tissue” value came to 0.233 and the “MYF6 expression level in loin tissue” value is 0.834. In test [1] (setting [3]), the “MyoD expression level in loin tissue” value was 0.857 and the “PPARr expression level in loin tissue” value worked out at 0.274. Besides, the Body weight in test [2] (heat stress, 0.1% NALT, Week 0 (initial weight)) is 428.8 kg. In test [2] (heat stress, 0.1% NALT, Week 5), this compound came in with a Body weight of 480.8 kg. This compound also returned a Body weight in test [2] (heat stress, 0.1% NALT, Week 10) of 510.5 kg. This compound also returned an ADG in test [2] (heat stress, 0.1% NALT, week 0 to week 5) of 1.49 kg/day. Further, the “Total ADG” value in test [2] (heat stress, 0.1% NALT, week 0 to week 10) came out at 1.17 kg/day. This compound also came in with an ADG in test [2] (heat stress, 0.1% NALT, week 5 to week 10) of 0.85 kg/day. Besides, in test [2] (period where the THI was over 80 (high heat stress)), the “Average daily gain compared to the control” value is “significantly increased”.

The record behind these values is patent US12186303B2, “Feed additive for cattle comprising n-acetyl-l-tryptophan as active ingredient” (CJ CHEILJEDANG CORPORATION, priority 2018, dated 2025).
